Test results as given in the supplement of paper PMC10307832.

Tests used:
Assay in all cases: relative viability (nuclei count vs DMSO), 5 days (fraction); higher = more cells survive
Wnt-C59 + Bortezomib = compound: CC1=NC=CC(=C1)C2=CC=C(C=C2)CC(=O)NC3=CC=C(C=C3)C4=CN=CC=C4 [Wnt-C59] + CC(C)C[C@H](NC(=O)[C@H](Cc1ccccc1)NC(=O)c1cnccn1)B(O)O [Bortezomib] (partner 0.002 µM)
In short: (§1)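 Cells from lung cancer lines were seeded into 1536-well plates and, one day later, dosed by pin tool. Treatments were either a single drug or a fixed dose of an anchor drug with five library-drug doses (not always all listed) in √10 steps. After 5 days, nuclei were stained in a one-step fixation (final 0.05% Triton X-100, 1% formaldehyde, 1 ug/ml Hoechst) and counted on 4× images, and relative viability is the treated-to-vehicle nuclei ratio, as the median of duplicate plates.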

Wnt-C59 + AZD7762 = compound: CC1=NC=CC(=C1)C2=CC=C(C=C2)CC(=O)NC3=CC=C(C=C3)C4=CN=CC=C4 [Wnt-C59] + NC(=O)Nc1cc(-c2cccc(F)c2)sc1C(=O)N[C@H]1CCCNC1 [AZD7762] (partner 0.2 µM)
In short: as §1

Lapatinib + Crizotinib = compound: CS(=O)(=O)CCNCc1ccc(-c2ccc3ncnc(Nc4ccc(OCc5cccc(F)c5)c(Cl)c4)c3c2)o1 [Lapatinib] + C[C@@H](Oc1cc(-c2cnn(C3CCNCC3)c2)cnc1N)c1c(Cl)ccc(F)c1Cl [Crizotinib] (partner 1 µM)
In short: as §1

Lapatinib + Olaparib = compound: CS(=O)(=O)CCNCc1ccc(-c2ccc3ncnc(Nc4ccc(OCc5cccc(F)c5)c(Cl)c4)c3c2)o1 [Lapatinib] + O=C(c1cc(Cc2n[nH]c(=O)c3ccccc23)ccc1F)N1CCN(C(=O)C2CC2)CC1 [Olaparib] (partner 8 µM)
In short: as §1

Row | Cell Line | relative viability (Wnt-C59 + Bortezomib; first compound 0.001 µM) | relative viability (Wnt-C59 + Bortezomib; first compound 0.01 µM) | relative viability (Wnt-C59 + Bortezomib; first compound 0.03162 µM) | relative viability (Wnt-C59 + Bortezomib; first compound 0.1 µM) | relative viability (Wnt-C59 + AZD7762; first compound 0.001 µM) | relative viability (Wnt-C59 + AZD7762; first compound 0.01 µM) | relative viability (Wnt-C59 + AZD7762; first compound 0.03162 µM) | relative viability (Wnt-C59 + AZD7762; first compound 0.1 µM) | relative viability (Lapatinib + Crizotinib; first compound 0.02 µM) | relative viability (Lapatinib + Crizotinib; first compound 0.06325 µM) | relative viability (Lapatinib + Crizotinib; first compound 0.2 µM) | relative viability (Lapatinib + Crizotinib; first compound 0.6325 µM) | relative viability (Lapatinib + Crizotinib; first compound 2 µM) | relative viability (Lapatinib + Olaparib; first compound 0.02 µM) | relative viability (Lapatinib + Olaparib; first compound 0.06325 µM) | relative viability (Lapatinib + Olaparib; first compound 0.2 µM) | relative viability (Lapatinib + Olaparib; first compound 0.6325 µM) | relative viability (Lapatinib + Olaparib; first compound 2 µM)
1 | NCI-H2087 | 0.68 | 0.715 | 0.789 | 0.753 | 1.43 | 1.37 | 1.28 | 1.2 | 0.876 | 0.88 | 1.1 | 0.692 | 0.766 | 0.56 | 0.412 | 0.625 | 0.516 | 0.503
2 | NCI-H2347 | 0.808 | 1.12 | 0.922 | 1.1 | 0.726 | 0.738 | 0.779 | 0.698 | 0.7 | 0.654 | 0.722 | 0.649 | 0.671 | 0.636 | 0.568 | 0.598 | 0.629 | 0.527
3 | NCI-H596 | 0.837 | 1.08 | 1.12 |  | 1.06 | 1.03 | 0.987 | 1.08 | 0.916 | 0.849 | 1 | 0.997 | 0.659 |  | 0.578 | 0.713 | 0.679 | 0.567
4 | ABC-1 | 0.266 | 0.171 | 0.33 | 0.306 | 0.89 | 0.686 | 0.488 | 0.518 |  | 0.928 | 1.32 | 1.22 | 0.967 | 0.983 | 0.882 |  | 0.781 | 0.9
5 | ChaGo-K-1 | 0.767 |  | 0.892 | 1.16 | 0.893 | 0.844 | 0.955 | 0.901 |  | 1.07 | 1.19 | 1.09 | 1.09 | 0.418 | 0.471 | 0.478 | 0.431 | 0.396
6 | LU99A | 1.11 | 1.08 | 1.07 | 1.1 | 0.374 | 0.491 | 0.338 | 0.313 | 0.591 | 0.464 | 0.53 | 0.582 | 0.597 | 0.302 | 0.282 | 0.276 | 0.237 | 0.234
7 | NCI-H1734 | 0.906 | 0.778 | 0.992 | 0.914 | 0.589 | 0.517 | 0.641 | 0.543 |  | 0.481 | 0.737 | 0.669 | 0.663 |  | 0.54 | 0.62 | 0.593 | 0.586
8 | NCI-H2126 | 1.12 | 1.09 | 1.11 | 1.11 | 1.01 | 1.02 | 1.02 | 1.05 |  | 0.879 | 1.02 | 1.04 | 0.865 | 0.933 | 0.757 | 0.894 | 0.825 | 0.794
